Laboratory results: patent US8883789B2, “Piperazine derivatives and their use as positive allosteric modulators of mGluR5 receptors” (Boehringer Ingelheim International GmbH, priority 2011, dated 2014)

Each compound was assayed against T1, human recombinant mGluR5 (Homo sapiens, UniProt P41594) (assay: positive modulation of mGluR5, calcium based FLIPR assay). Conditions: HEK 293 cell line expressing human recombinant mGluR5; Ca2+ peak height after glutamate at approximately 5% basal stimulation; nonlinear regression.
T1 construct: expressed in transfected cells; hygromycin and geneticin selection
T1 sequence (P41594 21-1212): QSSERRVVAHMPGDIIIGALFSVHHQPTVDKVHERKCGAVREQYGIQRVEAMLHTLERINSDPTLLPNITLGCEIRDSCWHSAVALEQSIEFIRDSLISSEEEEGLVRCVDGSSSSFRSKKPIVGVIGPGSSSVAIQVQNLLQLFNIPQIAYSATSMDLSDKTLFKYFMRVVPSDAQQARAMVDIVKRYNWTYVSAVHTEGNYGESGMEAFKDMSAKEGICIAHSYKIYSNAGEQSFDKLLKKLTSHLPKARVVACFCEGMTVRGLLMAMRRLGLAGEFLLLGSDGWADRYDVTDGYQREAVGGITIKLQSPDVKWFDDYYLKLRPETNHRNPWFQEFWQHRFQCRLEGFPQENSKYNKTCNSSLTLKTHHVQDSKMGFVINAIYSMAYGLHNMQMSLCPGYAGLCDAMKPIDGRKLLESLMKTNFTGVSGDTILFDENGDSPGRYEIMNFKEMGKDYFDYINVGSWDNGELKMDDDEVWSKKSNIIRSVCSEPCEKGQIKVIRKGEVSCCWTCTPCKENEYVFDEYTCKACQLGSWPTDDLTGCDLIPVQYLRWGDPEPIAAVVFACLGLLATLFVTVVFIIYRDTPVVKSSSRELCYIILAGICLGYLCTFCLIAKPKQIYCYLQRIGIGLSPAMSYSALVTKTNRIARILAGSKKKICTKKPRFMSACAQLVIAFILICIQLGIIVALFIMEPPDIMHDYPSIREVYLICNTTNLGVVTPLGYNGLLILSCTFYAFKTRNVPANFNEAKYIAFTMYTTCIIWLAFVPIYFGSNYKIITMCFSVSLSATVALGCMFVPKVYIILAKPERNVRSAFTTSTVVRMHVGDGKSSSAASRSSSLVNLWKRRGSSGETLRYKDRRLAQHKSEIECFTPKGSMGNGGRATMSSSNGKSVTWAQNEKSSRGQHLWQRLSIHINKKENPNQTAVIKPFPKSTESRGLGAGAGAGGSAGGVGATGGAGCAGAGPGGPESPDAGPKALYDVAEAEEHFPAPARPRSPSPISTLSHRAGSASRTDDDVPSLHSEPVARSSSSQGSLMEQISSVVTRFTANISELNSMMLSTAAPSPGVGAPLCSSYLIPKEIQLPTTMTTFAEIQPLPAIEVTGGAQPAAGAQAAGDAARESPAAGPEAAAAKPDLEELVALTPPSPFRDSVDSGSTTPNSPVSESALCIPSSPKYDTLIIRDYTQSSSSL
In short: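 HEK293 cells with tetracycline-free induction, Calcium-4 dye-loaded in Ringer pH 7.4. Compound added 5 min before glutamate at ~5% of maximal effect, 1% DMSO. EC50 from peak Ca2+ fluorescence, normalized to basal glutamate (100%) and 10 μM CDPPB (200%), via nonlinear regression.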
For `COc1ccc2c(C)c(C(=O)N3CCN(C(=O)c4ncn(-c5cccc(Cl)c5)n4)CC3C)oc2c1` (centres unmarked) [Example 213], the EC50 was 817 nM. With `CC1(C)CN(C(=O)c2cc(Cl)c3c(c2)OCCO3)CCN1C(=O)c1ncn(-c2cccc(Cl)c2)n1` [Example 19] the EC50 was 51 nM. Compound `Cc1oc2ccccc2c1C(=O)N1CCN(C(=O)c2ncn(-c3ccccc3)n2)CC1C` (centres unmarked) [Example 240] has an EC50 of 350 nM. `CCCOc1cccc(C(=O)N2CCN(C(=O)c3ncn(-c4cccc(Cl)c4)n3)C(C)C2)c1` (centres unmarked) [Example 285] showed an EC50 of 746 nM. Work on `COc1nc(C(=O)N2CCN(C(=O)c3ncn(-c4ccc(F)c(C)c4)n3)C(C)(C)C2)cc2ccccc12` [Example 160, [1-(4-Fluoro-3-methyl-phenyl)-1H-[1,2,4]triazol-3-yl]-[4-(1-methoxy-isoquinoline-3-carbonyl)-2,2-dimethyl-piperazin-1-yl]-methanone] yielded an EC50 of 207 nM. In the case of `CC1(C)CN(C(=O)c2csc(-c3ccccc3)n2)CCN1C(=O)c1ncn(-c2cccc(Cl)c2)n1` [Example 54], the EC50 is reported as 201 nM. With `COc1cccc(C(=O)N2CCN(C(=O)c3ncn(-c4cccc(Cl)c4)n3)C(C)(C)C2)n1` [Example 18] the EC50 was 48 nM. Work on `Cc1cccc(-n2cnc(C(=O)N3CCN(C(=O)c4cccc(Cl)c4)CC3(C)C)n2)c1` [Example 188] yielded an EC50 of 33 nM. With `CC1(C)CN(C(=O)c2cc3nccc(-c4ccccc4)n3n2)CCN1C(=O)c1ncn(-c2cccc(Cl)c2)n1` [Example 67] the EC50 was 29 nM. `CC1(C)CN(C(=O)c2cc(Br)c(Br)o2)CCN1C(=O)c1ncn(-c2cccc(F)c2)n1` [Example 175] showed an EC50 of 104 nM. Work on `COCCOc1nc(C(=O)N2CCN(C(=O)c3ncn(-c4cccc(Cl)c4)n3)C(C)(C)C2)cc2ccccc12` [Example 34] yielded an EC50 of 221 nM. With `CCCOc1nc(C(=O)N2CCN(C(=O)c3ncn(-c4ccccc4)n3)C(C)(C)C2)cc2ccccc12` [Example 99] the EC50 was 28 nM. `CC1(C)CN(C(=O)c2cccc(Cl)c2)CCN1C(=O)c1nnn(-c2ccccc2)n1` [Example 187] gave an EC50 of 24 nM. `COc1cccc(-c2cccc(C(=O)N3CCN(C(=O)c4ncn(-c5cccc(Cl)c5)n4)C(C)(C)C3)c2)c1` [Example 69] showed an EC50 of 53 nM. `CC1(C)CN(C(=O)c2cccc(S(C)(=O)=O)c2)CCN1C(=O)c1ncn(-c2ccccc2)n1` [Example 131] gave an EC50 of 1870 nM. In the case of `Cc1oc2ccccc2c1C(=O)N1CCN(C(=O)c2ncn(-c3ccccc3)n2)C(C)C1` (centres unmarked) [Example 295], the EC50 is reported as 95 nM. Compound `CC1(C)CN(C(=O)c2cc3ccccn3c2)CCN1C(=O)c1ncn(-c2cccc(Cl)c2)n1` [Example 58] has an EC50 of 104 nM. `CC1(C)CN(C(=O)c2cccc(C3CCC3)n2)CCN1C(=O)c1ncn(-c2ccccc2)n1` [Example 137] showed an EC50 of 69 nM. Compound `CC1CN(C(=O)c2ncn(-c3cccc(Cl)c3)n2)CCN1C(=O)c1ccc2ccn(C)c2c1` (centres unmarked) [Example 222] has an EC50 of 294 nM. In the case of `COCC1(C)CN(C(=O)c2cccc(OC)n2)CCN1C(=O)c1ncn(-c2cccc(Cl)c2)n1` (centres unmarked) [Example 311], the EC50 is reported as 577 nM. Compound `Cc1c(C(=O)N2CCN(C(=O)c3ncn(-c4cccc(Cl)c4)n3)C(C)(C)C2)oc2ccccc12` [Example 45] has an EC50 of 54 nM. Compound `Cc1c(C(=O)N2CCN(C(=O)c3ncn(-c4ccccc4)n3)C(C)(C)C2)oc2ccc(F)cc12` [Example 108] has an EC50 of 112 nM. For `CC1CN(C(=O)c2cccc3c2OCO3)CCN1C(=O)c1ncn(-c2cccc(Cl)c2)n1` (centres unmarked) [Example 286], the EC50 was 1330 nM. `Cc1cccc(C(=O)N2CCN(C(=O)c3ncn(-c4ccccc4)n3)C(C)(C)C2)c1` [Example 117] gave an EC50 of 208 nM. In the case of `CC1(C)CN(C(=O)c2cccc(C3CC3)n2)CCN1C(=O)c1nnn(-c2ccccc2)n1` [Example 180, [4-(6-Cyclopropyl-pyridine-2-carbonyl)-2,2-dimethyl-piperazin-1-yl]-(2-phenyl-2H-tetrazol-5-yl)-methanone], the EC50 is reported as 16 nM. For `CC1(C)CN(C(=O)c2cc3ccccc3c(C3CC3)n2)CCN1C(=O)c1nnn(-c2ccccc2)n1` [Example 205], the EC50 was 42 nM. Work on `COc1cccc(C(=O)N2CCN(C(=O)c3ncn(-c4cccc(F)c4)n3)C3(CCC3)C2)n1` [Example 307] yielded an EC50 of 754 nM. Compound `CN(C)c1cccc(C(=O)N2CCN(C(=O)c3ncn(-c4cccc(Cl)c4)n3)C(C)(C)C2)c1` [Example 44] has an EC50 of 136 nM. `CC1(C)CN(C(=O)c2cccc(OC(F)(F)F)c2)CCN1C(=O)c1ncn(-c2cccc(Cl)c2)n1` [Example 37] gave an EC50 of 388 nM. With `CC(C)COc1cccc(C(=O)N2CCN(C(=O)c3ncn(-c4ccccc4)n3)C(C)(C)C2)c1` [Example 129] the EC50 was 88 nM. For `COc1cccc(C(=O)N2CCN(C(=O)c3ncn(-c4cccc(Cl)c4)n3)[C@H](C)C2)n1` [Example 301, (R)-{4-[1-(3-Chloro-phenyl)-1H-[1,2,4]triazole-3-carbonyl]-3-methyl-piperazin-1-yl}-(6-methoxy-pyridin-2-yl)-methanone], the EC50 was 162 nM. Work on `COc1cccc(C(=O)N2CCN(C(=O)c3ncn(-c4cccc(C)c4)n3)CC2C)n1` (centres unmarked) [Example 244] yielded an EC50 of 216 nM. `CC1(C)CN(C(=O)c2ccnc(C(F)(F)F)n2)CCN1C(=O)c1ncn(-c2ccccc2)n1` [Example 143] showed an EC50 of 589 nM. Compound `Cc1nn(C)cc1-c1cccc(C(=O)N2CCN(C(=O)c3ncn(-c4cccc(Cl)c4)n3)C(C)(C)C2)n1` [Example 93] has an EC50 of 242 nM. `COc1cccc(C(=O)N2CCN(C(=O)c3ncn(-c4cccc(Cl)c4)n3)C(C)C2)n1` (centres unmarked) [Example 265, {4-[1-(3-Chloro-phenyl)-1H-[1,2,4]-triazole-3-carbonyl]-3-methyl-piperazin-1-yl}-(6-methoxy-pyridin-2-yl)-methanone] was tested, and the EC50 was 194 nM. In the case of `COc1cccc2c(C)c(C(=O)N3CCN(C(=O)c4ncn(-c5cccc(Cl)c5)n4)C(C)(C)C3)oc12` [Example 68], the EC50 is reported as 54 nM. `Cn1nc(C(=O)N2CCN(C(=O)c3ncn(-c4cccc(Cl)c4)n3)C(C)(C)C2)c2ccccc21` [Example 77] showed an EC50 of 181 nM. For `CC1(C)CN(C(=O)c2cc(Br)c(Br)o2)CCN1C(=O)c1ncn(-c2ccccc2)n1` [Example 105], the EC50 was 64 nM. In the case of `Cn1ccc2cc(C(=O)N3CCN(C(=O)c4ncn(-c5ccccc5)n4)C(C)(C)C3)ccc21` [Example 138], the EC50 is reported as 136 nM. With `COc1cc(Cl)cc(C(=O)N2CCN(C(=O)c3ncn(-c4cccc(Cl)c4)n3)C(C)(C)C2)n1` [Example 17] the EC50 was 45 nM. `COC(C)c1cccc(C(=O)N2CCN(C(=O)c3ncn(-c4ccccc4)n3)C(C)(C)C2)c1` (centres unmarked) [Example 116] showed an EC50 of 388 nM. `COc1cccc(C(=O)N2CCN(C(=O)c3ncn(-c4cccc(Cl)c4)n3)C[C@@H]2C)n1` [Example 252, (S)-{4-[1-(3-Chloro-phenyl)-1H-[1,2,4]triazole-3-carbonyl]-2-methyl-piperazin-1-yl}-(6-methoxy-pyridin-2-yl)-methanone] gave an EC50 of 278 nM. `CC1CN(C(=O)c2ncn(-c3cccc(Cl)c3)n2)CCN1C(=O)c1ccc2c(c1)nc(CC1CCCC1)n2C` (centres unmarked) [Example 229] was tested, and the EC50 was 512 nM. `C[C@H]1CN(C(=O)c2ncn(-c3cccc(F)c3)n2)CCN1C(=O)c1cc(Br)c(Br)o1` [Example 256, (S)-[4-(4,5-Dibromo-furan-2-carbonyl)-3-methyl-piperazin-1-yl]-[1-(3-fluoro-phenyl)-1H-[1,2,4]triazol-3-yl]-methanone] was tested, and the EC50 was 205 nM. Work on `CC1(C)CN(C(=O)c2cccc(-c3cccc(C#N)c3)c2)CCN1C(=O)c1ncn(-c2cccc(Cl)c2)n1` [Example 55] yielded an EC50 of 64 nM. Work on `COCc1c(C(=O)N2CCN(C(=O)c3ncn(-c4cccc(Cl)c4)n3)CC2C)oc2ccccc12` (centres unmarked) [Example 217] yielded an EC50 of 1540 nM. For `CC1(C)CN(C(=O)c2cc(Cl)ccc2F)CCN1C(=O)c1ncn(-c2cccc(Cl)c2)n1` [Example 73], the EC50 was 162 nM. In the case of `Cc1cc(C)cc(C(=O)N2CCN(C(=O)c3ncn(-c4ccccc4)n3)C(C)(C)C2)c1` [Example 113], the EC50 is reported as 76 nM. Work on `CC1(C)CN(C(=O)c2cccc(-c3ccncc3)n2)CCN1C(=O)c1ncn(-c2ccccc2)n1` [Example 111] yielded an EC50 of 215 nM. `CC1(C)CN(C(=O)c2cccc(C3CC3)n2)CCN1C(=O)c1nnn(-c2cccc(Cl)c2)n1` [Example 182] gave an EC50 of 28 nM. For `CC(C)c1ccc(C(=O)N2CCN(C(=O)c3ncn(-c4cccc(Cl)c4)n3)C(C)(C)C2)cc1` [Example 61], the EC50 was 96 nM. `COc1cccc(C(=O)N2CCN(C(=O)c3ncn(-c4cccc(F)c4)n3)CC2C)n1` (centres unmarked) [Example 246] showed an EC50 of 230 nM. `CC(C)COc1cccc(C(=O)N2CCN(C(=O)c3ncn(-c4cccc(Cl)c4)n3)C(C)C2)c1` (centres unmarked) [Example 282] was tested, and the EC50 was 597 nM. In the case of `COc1cccc(C(=O)N2CCN(C(=O)c3nnn(-c4ccccc4F)n3)C(C)(C)C2)n1` [Example 201], the EC50 is reported as 102 nM. Compound `Cc1cccc(-n2cnc(C(=O)N3CCN(C(=O)c4cc(Br)c(Br)o4)[C@@H](C)C3)n2)c1` [Example 255, (S)-[4-(4,5-Dibromo-furan-2-carbonyl)-3-methyl-piperazin-1-yl]-(1-m-tolyl-1H-[1,2,4]triazol-3-yl)-methanone] has an EC50 of 152 nM. Compound `CC1(C)CN(C(=O)c2cccc(C3(F)COC3)c2)CCN1C(=O)c1ncn(-c2cccc(Cl)c2)n1` [Example 23] has an EC50 of 58 nM. `Cc1c(C(=O)N2CCN(C(=O)c3ncn(-c4cccc(Cl)c4)n3)C(C)(C)C2)oc2c(C)cccc12` [Example 66] showed an EC50 of 104 nM. For `CC1CN(C(=O)c2cc3c(Cl)cccc3s2)CCN1C(=O)c1ncn(-c2ccccc2)n1` (centres unmarked) [Example 293], the EC50 was 361 nM. For `CC1(C)CN(C(=O)c2cccc(Br)c2)CCN1C(=O)c1ncn(-c2cccc(Cl)c2)n1` [Example 15], the EC50 was 30 nM. `COc1cccc(C(=O)N2CCN(C(=O)c3ncn(-c4cccc(F)c4)n3)C(C)C2)n1` (centres unmarked) [Example 297] gave an EC50 of 411 nM. `COc1nc(C(=O)N2CCN(C(=O)c3nnn(-c4cccc(F)c4)n3)C(C)(C)C2)cc2ccccc12` [Example 207, [2-(3-Fluoro-phenyl)-2H-tetrazol-5-yl]-[4-(1-methoxy-isoquinoline-3-carbonyl)-2,2-dimethyl-piperazin-1-yl]-methanone] gave an EC50 of 34 nM. Work on `CC1CN(C(=O)c2ccc3ccn(C)c3c2)CCN1C(=O)c1ncn(-c2cccc(Cl)c2)n1` (centres unmarked) [Example 272] yielded an EC50 of 350 nM.
